According to paper PMC2376196, “Novel thalidomide analogues display anti-angiogenic activity independently of immunomodulatory effects” (British Journal of Cancer, 2002):
≈ marks a conversion by molar mass, not a printed value. Entries after “also recorded” stand apart in the source; their conditions may differ. Like-named read-outs stand apart in the source and are kept apart here.

Columns and labels:
[1] = system: EA.hy926 cell line; assay: EA.hy926 proliferation (bFGF- and VEGF-induced, 3H-thymidine); format: cell-based, human; settings: 5-50 μg ml^-1, 96 h; data not shown
Protocol: (§1) Human umbilical vein endothelial cells (HUVEC) were purchased from TCS Cellworks Ltd. (Park Leys, Botolph Claydon, Bucks, UK) and cultured in large vessel EC basal medium and cell growth supplement (TCS Cellworks Ltd.). The cells were passaged between 3–5 times prior to use. The human endothelial-like EA.hy926 cell line, derived from the fusion of HUVEC with the A549 carcinoma cell line ([Edgell et al, 1983]), was kindly provided by Cora-Jean Edgell (NC, USA). The cells were cultured in DMEM with high glucose, 10% FCS and HAT. Both cell lines were harvested from subconfluent cultures and diluted to 4×10^4 cells ml^−1. Cells were seeded in 60 wells of a 96-well plate in a volume of 100 μl^−1. One plate was used per test article. Plates were incubated for 1 h at 37°C and 5% CO2. Growth factors were added at a volume of 50 μl^−1 with final concentrations of 10 ng ml^−1. Thalidomide and its analogues were added at a volume of 50 μl^−1 in final concentrations of 5, 10, 25, 50 μg ml^−1. DMSO as used as a vehicle at a final concentration of 0.05%. Plates were incubated at 37°C with 5% CO2 for 96 h. During the last 18 h of culture 1 μCi^−1 of ^3H-thymidine was added per well. Plates were then stored at −20°C until analysis using a Microbeta counter (Wallac, UK).

[2] = system: rat aortic explants; assay: Rat aorta assay (microvessel outgrowths); format: cell-based; set-up: key to Anti-angiogenesis Rat aorta: 0=no effect; 1=non significant inhibition; 2=significant inhibition at 10 μg ml^-1; 3=significant inhibition at 1 μg ml^-1; settings: for Anti-angiogenesis Rat aorta: ranked 0-3
Protocol: For the human angiogenesis assay thalidomide and various analogues were dissolved in DMSO (Sigma, Kent, UK) to obtain a stock solution of 1 mg ml^−1. Further dilutions were made in warm culture medium immediately before use and 1 and 10 μg ml^−1 of thalidomide or analogues were administered every 48 h. Final DMSO concentration was 0.05%. For the rat aorta assay, thalidomide analogues (Celgene, Warren, NJ, USA) were prepared in Tween 80 (Sigma, Kent, UK). […] The final Tween 80 concentration was 0.025%. For in vivo treatment experiments, mice were treated daily with 10 or 50 mg kg^−1 IMiD-1 with 0.5% DMSO as vehicle (see Tumour challenge model).
Preparation of agarose culture wells and aortic explants were prepared as described originally [Nicosia and Ottinetti, 1990], and subsequently modified by [Stevenson et al, 1998]. In brief, aortic explants were stored in DMEM/HAM F12. Agarose rings were obtained by punching two concentric circles in the sterile agarose gel (1.5%, w v^−1) with specifically designed aluminium punches. Collagen type I from rat tail (Sigma) was dissolved overnight in glacial acetic acid and diluted to 4.3 mg ml^−1 with 10% (v v^−1) DMEM/HAM F12. The final collagen solution was obtained by mixing seven volumes of 4.3 mg ml^−1 collagen with two volumes NaHCO3 (11.7 mg ml^−1 in DMEM/HAM F12) and one volume of 10×MEM. Finally, the pH was adjusted to 7.4 with 0.1 M NaOH using phenol red as a visual indicator. Prior to embedding of explants in collagen gel, the bottom of each agarose well was coated with 200 μl collagen solution and allowed to set at 37°C. The wells were then filled (further addition of 400 μl) and explants were promptly orientated into the centre of the collagen gel. The plates were incubated overnight with serum-free medium before group allocation and drug treatment commenced. Drugs were prepared as described and diluted in DMEM/HAM F12 medium to be administered at each media change (48 h). Microvessel outgrowths in all cultures were quantified at each media change.

[3] = system: HUVEC; assay: HUVEC proliferation (bFGF- and VEGF-induced, 3H-thymidine); format: cell-based, human; settings: for bFGF and VEGF-induced proliferation of HUVECs: 5-50 μg ml^-1, 96 h; for HUVEC inhibition ~IC50 VEGF / HUVEC inhibition ~IC50 bFGF / IC50: 96 h, approximate figures; for IC50: Homo sapiens, HUVEC
Protocol: as §1

[4] = system: HUVECs (tubule formation); assay: Human angiogenesis kit (tubule development); format: cell-based; set-up: key to Anti-angiogenesis Human model: 0=no effect; 1=non significant inhibition; 2=significant inhibition at 10 μg ml^-1; 3=significant inhibition at 1 μg ml^-1; settings: for inhibition of tubule development: 11 days; for Anti-angiogenesis Human model: ranked 0-3
Protocol: (§2) For the human angiogenesis assay thalidomide and various analogues were dissolved in DMSO (Sigma, Kent, UK) to obtain a stock solution of 1 mg ml^−1. Further dilutions were made in warm culture medium immediately before use and 1 and 10 μg ml^−1 of thalidomide or analogues were administered every 48 h. Final DMSO concentration was 0.05%. For the rat aorta assay, thalidomide analogues (Celgene, Warren, NJ, USA) were prepared in Tween 80 (Sigma, Kent, UK). Dilutions were made in culture medium immediately before use and 1 or 10 μg ml^−1 of the analogues were administered every 48 h. The final Tween 80 concentration was 0.025%. For in vivo treatment experiments, mice were treated daily with 10 or 50 mg kg^−1 IMiD-1 with 0.5% DMSO as vehicle (see Tumour challenge model).
A commercially available human angiogenesis kit, used for the assessment of angiogenesis in vitro ([Bishop et al, 2000]; [Donovan et al, 2001]; [Terai et al, 2001]; [Drinkwater et al, 2002]; [Osugi et al, 2002]) was provided by TCS Cellworks. The assay is supplied as growing cultures of HUVECs at the earliest stages of tubule formation in a 24 well plate format. The assay was carried out according to manufactures instructions with minor modifications. In brief, 0.5 ml^−1 of fresh medium or medium plus drug preparations were added to the appropriate wells. A known angiogenic stimulator (VEGF at 5 ng ml^−1) and inhibitor (suramin at 10 μg ml^−1) were included as positive and negative controls respectively in addition to medium and DMSO controls and plates were incubated at 37°C. Drug administration was carried out every 48 h. On day 11, wells were fixed using ice cold 70% EtOH prior to incubation (RT) for 30 min. Blocking buffer was then added for 10 min. Endothelial cells were visualised by first staining with a primary sheep anti-human for von Willebrand factor antibody followed by a secondary donkey anti-sheep IgG horseradish peroxidase conjugate prior to colour development using a DAB metal substrate. The plate was washed with ddH2O (×3) and allowed to air dry overnight. Cultures were scored manually using a 25-point Chalkley eyepiece graticule (Graticules Ltd., Tonbridge, Kent, UK), previously described as a satisfactory method of assessing tumour vascularity ([Fox et al, 1995]). The extent of angiogenesis was assessed by counting the number of points on the chalkley graticule that landed on a tubule. The count was repeated 12 times for each well. The term ‘graticule unit’ was assigned to this measurement of tubule density.

[5] = system: CMT93 colorectal tumour; format: in vivo, MF1 nude mice
Protocol: as §2
MF1 nude mice (nu nu^−1) were purchased from Harlan UK. Mice were age and sex-matched for individual experiments. All animal experiments have been carried out with ethical committee approval. The ethical guidelines that were followed meet the standards set by the UKCCCR guidelines ([Workman et al, 1998]). CMT93 is an epithelial-like murine rectum polypoid carcinoma cell line with sarcomatous features derived from a C57/BL mouse ([Franks and Hemmings, 1978]). Mice were challenged subcutaneously with 200 μl of the murine colorectal cell line CMT93 (2×10^6 per mouse). Once the tumours reached a size of 20 mm^3, the potent anti-angiogenic analogue IMiD-1 was administered intraperitoneally daily at a concentration of 10 or 50 mg kg^−1. Tumours were measured every 3–4 days, and volumes (in mm^3) were calculated by the use of the formula (width [mm^2]×length [mm]×0.52). The animals were observed daily, and those bearing large tumours were monitored carefully for any signs of discomfort. […] Histological samples were obtained using formalin-fixed, paraffin-embedded sections stained for haematoxylin and eosin and viewed under a microscope at a magnification of ×400.

[6] = system: EA.hy926 cells; assay: Wound assay for EA.hy926 cell migration; format: cell-based, human; settings: 16 h
Protocol: We tested IMiD-1 in the wound healing assay as described by [Igura et al, 2001]. Briefly, confluent monolayers of EA.hy.926 cells in 35-mm dishes were wounded with a rubber policeman and washed with PBS. Then the dishes were incubated in complete DMEM containing IMiD-1 or suramin for 16 h at 37°C in a 5% CO2 incubator. DMSO (0.05%) was used as control. The cell monolayers were fixed with absolute methanol and stained with Giemsa. The number of cells that had migrated from the edge of the wound in each 125×500 μm area of eight randomly chosen fields was counted. The results are presented as the average number of cells per field.

[7] = system: CMT93 cells; assay: CMT93 cells in vitro (direct effect, VEGF secretion); format: cell-based, murine; settings: data not shown
[8] = system: PDE type 4 purified from U937 cells; assay: Phosphodiesterase (PDE) type 4 assay; format: biochemical; settings: PDE type 4 from U937 cells; three independent experiments; read-out: PDE4 activity IC50
Protocol: PDE type 4 purification from U937 cells was carried out using the method of [Hill and Mitchell (1994)]. PDE activity was assayed, using a method described by [di Santo and Heaslip (1993)], in the presence of varying concentrations of thalidomide analogues. Each data point was carried out in duplicate with activity expressed as percentage of control. IC50 was determined from dose response curves derived from three independent experiments.

[9] = system: TNF-α; assay: TNF-α inhibitory activity; format: cell-based
[10] = system: human EC; set-up: method as in Moreira et al, 1999; settings: compared with thalidomide; ref Moreira et al, 1999; cited from earlier work
[11] = system: EC; set-up: method as in Takano et al, 1994; settings: ref Takano et al, 1994; cited from earlier work

Row | Compound | bFGF and VEGF-induced proliferation of EA.hy926 [1] | inhibition of microvessel outgrowths ([2]; 1 μg ml^-1 every 48 h) | Anti-angiogenesis Rat aorta [2] | bFGF and VEGF-induced proliferation of HUVECs [3] | HUVEC inhibition ~IC50 VEGF ([3]; VEGF-induced proliferation) [µg/mL] | HUVEC inhibition ~IC50 bFGF ([3]; bFGF-induced proliferation) [µg/mL] | inhibition of tubule development ([4]; 10 μg ml^-1 every 48 h) | Anti-angiogenesis Human model [4] | migration of EC in the wound healing assay [6] | IC50 [8] [µM] | IC50 [9] [µM] | inhibition of microvessel outgrowths ([2]; 10 μg ml^-1 every 48 h) | other results
1 | Nc1cccc2c1CN(C1CCC(=O)NC1=O)C2=O (centres unmarked) [IMiD-1] | did not affect | significantly inhibited | 3 | did not significantly inhibit; also recorded: did not affect | >50 | >50 | more potent than suramin | 3 | significantly inhibit | > 100 | 0.1 | – | inhibition of microvessel outgrowths ([2]; 10 μg ml^-1 every 48 h, up to day 10): 100%; inhibition of tubule development ([4]; 1 μg ml^-1 every 48 h): significant reduction; also recorded: significantly inhibit; histological examination of tumours ([5]; 10 or 50 mg kg^-1 i.p. daily): vast regions of necrotic tissue; tumour growth rates ([5]; 10 or 50 mg kg^-1 i.p. daily, nude mice, CMT93): significantly reduce; health and weight of mice ([5]; mouse, in vivo, ip): healthy and maintained weight as normal; direct drug effect on CMT93 cells in vitro [7]: no direct drug effect; secretion of VEGF by CMT93 cells in vitro [7]: inhibit
2 | COc1ccc(C(CC(N)=O)N2C(=O)c3ccccc3C2=O)cc1OC (centres unmarked) [SelCID-3] | inhibited | potent inhibition | 3 | inhibited | ~45 | ~25 | – | – | – | 9.42 | 12.6 | potent inhibition | inhibition of human EC proliferation in vitro [10]: greater extent than thalidomide
3 | O=C1CCC(N2C(=O)c3ccccc3C2=O)C(=O)N1 (centres unmarked) [Thalidomide] | – | – | 0 | did not significantly inhibit | – | – | non-significant inhibition | 1 | – | > 100 | 190 | – | inhibition of microvessel development ([2]; at up to 50 μg ml^-1, data not shown): did not significantly inhibit; IC50 ([3]; VEGF-induced proliferation, read-out: HUVEC inhibition ~IC50 VEGF): > 50 µg/mL; IC50 ([3]; bFGF-induced proliferation, read-out: HUVEC inhibition ~IC50 bFGF): > 50 µg/mL
4 | Cc1ccc(C(=O)Nc2ccc(S(=O)(=O)O)c3cc(S(=O)(=O)O)cc(S(=O)(=O)O)c23)cc1NC(=O)c1cccc(NC(=O)Nc2cccc(C(=O)Nc3cc(C(=O)Nc4ccc(S(=O)(=O)O)c5cc(S(=O)(=O)O)cc(S(=O)(=O)O)c45)ccc3C)c2)c1 [suramin, reference compound] | – | – | – | did not inhibit | – | – | – | – | significantly inhibit | – | – | significantly inhibit | IC50 ([2]; Rattus norvegicus, previously determined, data not shown): 10 µg/mL (≈ 7.71 µM); inhibition at 10 µg/mL ([4]; Homo sapiens, HUVEC, suramin at 10 μg ml^-1): ~50%; concentration required to inhibit EC proliferation [11]: 250 µg/mL
5 | VEGF | – | – | – | – | – | – | – | – | – | – | – | – | effect on angiogenesis (tubule development) ([4]; VEGF at 5 ng ml^-1, positive control): significantly increased
